From US7842462B2, “Identification of substances that inhibit NEMO oligomerization” (Institut Pasteur, priority 2006, dated 2010)

Test system: NEMO oligomerization (CFP-NEMO / YFP-NEMO)
Test: FRET between CFP-NEMO and YFP-NEMO in lysates of doubly transfected Nemo-/- MEF cells
Type: cell-based, murine
Conditions: pECFP-Nemo and pEYFP-Nemo doubly transfected Nemo-/- MEF cells; 30 min incubation with IL-1β (10 ng/ml); excitation 433 nm
Procedure: Rat-1, M319-5b (see supplementary data), 5R fibroblast and wild type, Ikkα^−/−Ikkβ^−/− and Nemo^−/− MEF cells were grown in Dulbecco's modified Eagle's medium supplemented with 10% fetal bovine serum. For 5R cells, 20% 5R conditioned medium was added to fresh culture medium. Transfections using Fugene 6 (Roche) were performed according to the manufacturer protocol using, per well of a 6 well-plate, 2 μg of pECFP-Nemo or pEYFP-Nemo plasmid (single transfection) or 1 μg each (double transfection). For plasmid obtaining, see supplementary data. In NF-κB complementation assays 100 ng of pEF1-lacZ (marker for transfection efficiency) and Igκ-luciferase plasmids were added to the transfection mix. Cell fluorescence was controlled with an Axiovert 200 (Zeiss) inverted microscope one day after transfection.
Cells transfected with the lacZ and the Igκ-luciferase plasmids were trypsinated, pelleted and resuspended in fresh culture medium. Cell suspension was stimulated by IL-1β (BD, Biosciences, 10 ng/ml) or TNFα (BD Biosciences, 20 ng/ml) for 30 min at 37° C. […] Kinase activity in cytosolic extracts or glycerol gradient fractions was detected as described by Yamaoka, S., Courtois, G., Bessia, C., Whiteside, S. T., Weil, R., Agou, F., Kirk, H. E., Kay, R. J. and Israel, A. (1998) Complementation cloning of NEMO, a component of the IkappaB kinase (IKK) complex essential for NF-kappaB activation. […]

## IL-1β: pro inflammatory cytokine (BD Biosciences) used as NF-κB pathway activating stimulus
  FRET transfer efficiency between CFP and YFP: 21.7%
